Reference: US20220402882A1, “HERBICIDAL COMPOUNDS” (SYNGENTA CROP PROTECTION AG, priority 2019, published 2022)

What was measured:
Assay type in all cases: in vivo
Settings in all cases: 125 g/h, evaluated after 13 days
[1] = test system: Amaranthus retoflexus (AMARE); assay: Post-emergence glasshouse herbicide test
Protocol: (§1) Seeds of a variety of test species are sown in standard soil in pots (Lolium perenne (LOLPE), Amaranthus retoflexus (AMARE), Abutilon theophrasti (ABUTH), Setaria faberi (SETFA), Echinochloa crus-galli (ECHCG), Ipomoea hederacea (IPOHE)). After cultivation for one day (pre-emergence) or after 8 days cultivation (post-emergence) under controlled conditions in a glasshouse (at 24/16° C., day/night; 14 hours light; 65% humidity), the plants are sprayed with an aqueous spray solution derived from the formulation of the technical active ingredient in acetone/water (50:50) solution containing 0.5% Tween™ 20 (polyoxyethelyene sorbitan monolaurate, CAS RN 9005-64-5). Compounds are applied at 125 g/h unless otherwise indicated. The test plants are then grown in a glasshouse under controlled conditions in a glasshouse (at 24/16° C., day/night; 14 hours light; 65% humidity) and watered twice daily. After 13 days for pre- and post-emergence, the test is evaluated for the percentage damage caused to the plant. The biological activities are shown in the following table on a five-point scale (5=80-100%; 4=60-79%; 3=40-59%; 2=20-39%; 1=0-19%).

[2] = test system: Ipomoea hederacea (IPOHE); assay: Post-emergence glasshouse herbicide test
Protocol: as §1

Setaria faberi (SETFA) [3] = assay: Post-emergence glasshouse herbicide test
Protocol: as §1

[4] = test system: Echinochloa crus-galli (ECHCG); assay: Post-emergence glasshouse herbicide test
Protocol: as §1

[5] = test system: Abutilon theophrasti (ABUTH); assay: Post-emergence glasshouse herbicide test
Protocol: as §1

[6] = test system: Amaranthus retoflexus (AMARE); assay: Pre-emergence glasshouse herbicide test
Protocol: as §1

[7] = test system: Ipomoea hederacea (IPOHE); assay: Pre-emergence glasshouse herbicide test
Protocol: as §1

Setaria faberi (SETFA) [8] = assay: Pre-emergence glasshouse herbicide test
Protocol: as §1

[9] = test system: Echinochloa crus-galli (ECHCG); assay: Pre-emergence glasshouse herbicide test
Protocol: as §1

[10] = test system: Abutilon theophrasti (ABUTH); assay: Pre-emergence glasshouse herbicide test
Protocol: as §1

SMILES | percentage damage caused to the plant, AMARE [1] | percentage damage caused to the plant, IPOHE [2] | percentage damage caused to the plant, SETFA (Setaria faberi (SETFA) [3]) | percentage damage caused to the plant, ECHCG [4] | percentage damage caused to the plant, ABUTH [5] | percentage damage caused to the plant, AMARE [6] | percentage damage caused to the plant, IPOHE [7] | percentage damage caused to the plant, SETFA (Setaria faberi (SETFA) [8]) | percentage damage caused to the plant, ECHCG [9] | percentage damage caused to the plant, ABUTH [10]
CCS(=O)(=O)c1cc(C(=O)Nc2nnnn2C)ccc1OC(F)F [Compound 1.025] | 5 (5=80-100%) | 5 (5=80-100%) | 5 (5=80-100%) | 5 (5=80-100%) | 5 (5=80-100%) | 5 (5=80-100%) | 4 (4=60-79%) | 5 (5=80-100%) | 5 (5=80-100%) | 5 (5=80-100%)
CC[S+]([O-])c1c(OC(F)F)ccc(C(=O)Nc2nnnn2C)c1C (stereo not drawn) [Compound 1.029] | 5 (5=80-100%) | 5 (5=80-100%) | 5 (5=80-100%) | 5 (5=80-100%) | 5 (5=80-100%) | 5 (5=80-100%) | 4 (4=60-79%) | 5 (5=80-100%) | 5 (5=80-100%) | 5 (5=80-100%)
CCn1nnnc1NC(=O)c1ccc(OC(F)(F)F)c(S(=O)(=O)CC)c1C [Compound 1.046] | 5 (5=80-100%) | 5 (5=80-100%) | 5 (5=80-100%) | 5 (5=80-100%) | 5 (5=80-100%) | 5 (5=80-100%) | 5 (5=80-100%) | 5 (5=80-100%) | 5 (5=80-100%) | 5 (5=80-100%)
CCS(=O)(=O)c1c(OCC(F)(F)F)ccc(C(=O)Nc2nnnn2C)c1Cl [Compound 1.035] | 5 (5=80-100%) | 5 (5=80-100%) | 5 (5=80-100%) | 5 (5=80-100%) | 5 (5=80-100%) | 5 (5=80-100%) | 5 (5=80-100%) | 5 (5=80-100%) | 5 (5=80-100%) | 5 (5=80-100%)
CCS(=O)(=O)c1c(CC(F)(F)F)ccc(C(=O)Nc2nnnn2C)c1C [Compound 1.024] | 5 (5=80-100%) | 5 (5=80-100%) | 5 (5=80-100%) | 5 (5=80-100%) | 5 (5=80-100%) | 5 (5=80-100%) | 5 (5=80-100%) | 5 (5=80-100%) | 5 (5=80-100%) | 5 (5=80-100%)
CCn1nnnc1NC(=O)c1ccc(OC(F)F)c(S(=O)(=O)CC)c1Cl [Compound 1.049] | 5 (5=80-100%) | 4 (4=60-79%) | 5 (5=80-100%) | 5 (5=80-100%) | 5 (5=80-100%) | 5 (5=80-100%) | 5 (5=80-100%) | 5 (5=80-100%) | 5 (5=80-100%) | 5 (5=80-100%)
CCn1nnnc1NC(=O)c1ccc(OC(F)(F)F)c(S(=O)(=O)CC)c1Cl [Compound 1.047] | 5 (5=80-100%) | 5 (5=80-100%) | 5 (5=80-100%) | 5 (5=80-100%) | 5 (5=80-100%) | 5 (5=80-100%) | 5 (5=80-100%) | 5 (5=80-100%) | 5 (5=80-100%) | 5 (5=80-100%)
CCS(=O)(=O)c1c(OC(F)F)ccc(C(=O)Nc2nnnn2C)c1C [Compound 1.031] | 5 (5=80-100%) | 5 (5=80-100%) | 5 (5=80-100%) | 5 (5=80-100%) | 5 (5=80-100%) | 5 (5=80-100%) | 5 (5=80-100%) | 5 (5=80-100%) | 5 (5=80-100%) | 5 (5=80-100%)
CCn1nnnc1NC(=O)c1ccc(OCC(F)(F)F)c(S(=O)(=O)CC)c1C [Compound 1.063] | 5 (5=80-100%) | 3 (3=40-59%) | 5 (5=80-100%) | 5 (5=80-100%) | 5 (5=80-100%) | 5 (5=80-100%) | 4 (4=60-79%) | 5 (5=80-100%) | 5 (5=80-100%) | 5 (5=80-100%)
